Reference: patent publication US20230123334A1, “AMINO LIPID COMPOUND, PREPARATION METHOD THEREFOR, AND APPLICATION THEREOF” (SHENZHEN SHENXIN BIOTECHNOLOGY CO., LTD., priority 2020, published 2023)

How the values were obtained:
HEK293 cells [1] = test: Preliminary screening as DNA vectors, GFP transfection of HEK293 cells; assay type: cell-based; settings: HEK293 cells; lipid/DOPE liposome with 75 ng plasmid DNA (psin-EGFP-IRES-Puro); number of cells expressing GFP divided by total number of nuclei (Hoechst)
Outline: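 HEK293 cells in DMEM/10% FBS transfected with 75 ng EGFP plasmid per well complexed with amino lipid/DOPE liposomes in pH 5.6 sodium acetate. Hoechst nuclear stain added 20-24 h post-transfection, then cells cultured another 20-24 h. Confocal imaging gives GFP-positive cells as % of total nuclei.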

HEK293 cells [2] = test: Preliminary screening as mRNA vectors, EGFP mRNA transfection of HEK293 cells; assay type: cell-based; settings: HEK293 cells, 96-well plates, EGFP mRNA 50 ng per well; percentage of GFP fluorescent cells relative to total number of cells (Hoechst)
Outline: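 HEK293 cells in DMEM plus 10% FBS transfected in 96-well format with 50 ng EGFP mRNA per well; Lipofectamine2000 served as positive control. Read-out is the percentage of GFP-fluorescent cells among total cells, counted by Hoechst nuclear stain.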

Compound	Absolute DNA transfection efficiency in HEK293 cells (HEK293 cells [1])	Absolute mRNA transfection efficiency in HEK293 cells (HEK293 cells [2])
CCCCCCCCCCCCCCCSc1nc(NCCCN2CCOCC2)nc(SCCCCCCCCCC)n1 [Compound S10S15D8]	15.2%	11.1%
CCCCCCCCCNc1nc(NCCCCCCC)nc(NCCN2CCCC2)n1 [Compound N7N9D3]	0.0%	0.1%
CCCCCCCCCCCCCCCNc1nc(NCCCCCCCCCCCC)nc(NCCN(CC)CC)n1 [Compound N12N15D7]	0.8%	1.4%
CCCCCCCNc1nc(NCCCCCCC)nc(NCCN2CCCCC2)n1 [Compound N7N7D4]	0.0%	0.0%
CCCCCCCCCCCCCCCCNc1nc(NCCCCCCCCCCC)nc(NCCN(CC)CC)n1 [Compound N11N16D7]	0.0%	0.7%
CCCCCCCCCCCCCCCCCCNc1nc(NCCN2CCOCC2)nc(N(CCCCCCCCCCCC)CCCCCCCCCCCC)n1 [N18^2N12D2]	0.0%	0.1%
CCCCCCCCCCCSc1nc(NCCN2CCCC2)nc(SCCCCCCCCCCC)n1 [Compound S11S11D3]	6.5%	3.6%
CCCCCCCCCCCCSc1nc(NCCN2CCOCC2)nc(SCCCCCCCCCCCC)n1 [Compound S12S12D2]	0.1%	0.0%
CCCCCCCCCCCCN(CCCCCCCCCCCC)c1nc(NCCCCCCCC)nc(NCC2CCN(C)CC2)n1 [N8^2N12D10]	0.0%	2.7%
CCCCCCCCCCCCNc1nc(NCCCCCCCC)nc(NCCCN2CCOCC2)n1 [Compound N8N12D8]	0.0%	0.0%
CCCCCCCCCCCCCCCCCCSc1nc(NCCN2CCCC2)nc(SCCCCCCCCCCCCCCC)n1 [Compound S15S18D3]	2.6%	1.9%
CCCCCCCCCCCCCCCNc1nc(NCCCCCCCCC)nc(NCCCN(C)C)n1 [Compound N9N15D6]	0.0%	1.7%
CCCCCCCCCCCCCCCCCCNc1nc(NCCCCCCCCCCCCCCCCCC)nc(NCCN2CCCC2)n1 [Compound N18N18D3]	2.0%	40.0%
CCCCCCCCCCCCNc1nc(NCCCCCCCCC)nc(NCCN(C)C)n1 [Compound N9N12D1]	0.0%	0.5%
CCCCCCCCCCCCCCCCCCNc1nc(NCCCCCCCCCCCCCCCCCC)nc(NCCN(C)C)n1 [Compound N18N18D1]	1.9%	2.2%
CCCCCCCCCCCCCCCCNc1nc(NCCCCCC)nc(NCCN2CCCC2)n1 [Compound N6N16D3]	0.7%	2.8%
CCCCCCCCCCCCCCCCNc1nc(NCCN2CCN(C)CC2)nc(N(CCCCCCCCCCCC)CCCCCCCCCCCC)n1 [N16^2N12D5]	0.6%	0.0%
CCCCCCCCCCCCNc1nc(NCCCCCCCCCCCC)nc(NCCCN2CCN(C)CC2)n1 [Compound N12N12D9]	0.0%	1.5%

Compound	Absolute DNA transfection efficiency in HEK293 cells (HEK293 cells [1])	Absolute mRNA transfection efficiency in HEK293 cells (HEK293 cells [2])
CCCCCCCNc1nc(NCCCCCCC)nc(NCCN2CCCC2)n1 [Compound N7N7D3]	0.0%	0.0%
CCCCCCCCCCCSc1nc(NCCN(CC)CC)nc(SCCCCCCCCCC)n1 [Compound S10S11D7]	7.3%	1.8%
CCCCCCCCCCCCCCCCSc1nc(NCCN(CC)CC)nc(SCCCCCCCC)n1 [Compound S8S16D7]	11.8%	0.5%
CCCCCCCCCCCNc1nc(NCCCCCCCCC)nc(NCC2CCN(C)CC2)n1 [Compound N9N11D10]	0.0%	0.0%
CCCCCCCCCCCCCNc1nc(NCCCN2CCOCC2)nc(N(CCCCCCCCCCCC)CCCCCCCCCCCC)n1 [N13^2N12D8]	0.0%	2.3%
CCCCCCCCCCCCCCCCNc1nc(NCC2CCN(C)CC2)nc(N(CCCCCCCCCCCC)CCCCCCCCCCCC)n1 [N16^2N12D10]	1.5%	0.0%
CCCCCCCCCCCCCCCNc1nc(NCCCCCC)nc(NCCCN2CCOCC2)n1 [Compound N6N15D8]	0.3%	0.0%
CCCCCCCCNc1nc(NCCCCCCCC)nc(NCCN2CCCC2)n1 [Compound N8N8D3]	1.8%	0.4%
CCCCCCCNc1nc(NCCCCCC)nc(NCCN2CCCC2)n1 [Compound N6N7D3]	0.4%	0.0%
CCCCCCCCCCCCCCCSc1nc(NCCN2CCCC2)nc(SCCCCCCCCCCCC)n1 [Compound S12S15D3]	2.9%	9.7%
CCCCCCCCCCCCCCCCCCSc1nc(NCCCN2CCOCC2)nc(SCCCCCCCCCC)n1 [Compound S10S18D8]	13.7%	8.0%
CCCCCCCCCCSc1nc(NCCN2CCCC2)nc(SCCCCCCCCC)n1 [Compound S9S10D3]	10.3%	70.1%
CCCCCCCCCCCCCCSc1nc(NCCN2CCN(C)CC2)nc(SCCCCCCCCCCCCCC)n1 [Compound S14S14D5]	0.0%	0.0%
CCCCCCCCCCCCCCCCNc1nc(NCCCCCCCCCCCC)nc(NCCN2CCCC2)n1 [Compound N12N16D3]	1.2%	3.3%
CCCCCCCCCCCCCNc1nc(NCCN2CCCCC2)nc(N(CCCCCCCCCCCC)CCCCCCCCCCCC)n1 [N13^2N12D4]	0.8%	4.5%
CCCCCCCCCCCCCCCCCCNc1nc(NCCCCCCCCCCCCCCC)nc(NCCN2CCCCC2)n1 [Compound N15N18D4]	1.6%	1.9%
CCCCCCCNc1nc(NCCCCCC)nc(NCCN(C)C)n1 [Compound N6N7D1]	0.0%	0.1%
